This passage reports EC50 results from patent US11299475B2, “Prostacyclin receptor agonist” (MEDSHINE DISCOVERY INC., priority 2018, dated 2022).

The target in the experiment is T1, PGI2 receptor (Homo sapiens, UniProt P43119).
T1 construct: host or cells: thawed 'PGI2 cell' suspension
T1 sequence (P43119 whole entry, species assumed): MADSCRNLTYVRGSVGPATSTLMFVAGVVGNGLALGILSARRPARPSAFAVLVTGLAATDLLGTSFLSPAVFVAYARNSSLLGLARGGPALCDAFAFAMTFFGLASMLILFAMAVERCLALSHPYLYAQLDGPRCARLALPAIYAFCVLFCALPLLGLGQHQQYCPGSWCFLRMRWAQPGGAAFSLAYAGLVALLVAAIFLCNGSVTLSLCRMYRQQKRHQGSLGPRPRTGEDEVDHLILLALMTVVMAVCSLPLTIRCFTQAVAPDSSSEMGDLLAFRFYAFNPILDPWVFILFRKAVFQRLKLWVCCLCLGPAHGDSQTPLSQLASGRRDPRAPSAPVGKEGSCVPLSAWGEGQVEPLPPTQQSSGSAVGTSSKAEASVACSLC
As to the kind of experiment: PGI2 cAMP cell assay in vitro (HTRF cAMP). It counts as cell-based. To be noted: cells in vitro. As for the experimental part:
PGI2 cAMP Cell Assay In Vitro:
A series of cells were placed in a 37° C. water bath for rapid thawing, and the cell suspension was transferred to a 15 mL centrifuge tube containing 10 mL HBSS, and mixed uniformly. The cells were centrifuged at 1000 rpm for 5 minutes at room temperature. The supernatant was removed after centrifugation.
The centrifuge tube was tapped gently to suspend the cells after centrifugation, then the cells were re-suspended with 10 mL HBSS (Hanks buffered saline solution) and mixed uniformly by pipetting up and down. The cells were counted by Vi-cell. The cells were centrifuged for the second time at 1000 rpm for 5 minutes. The cells were re-suspended by experimental buffer to reach a cell concentration of 1.5×10^5/mL.
The samples were diluted with the Bravo automated liquid handling platform to make the initial concentration of the sample reach 2 mM and 5-fold serial dilution at 10 points. The control sample was diluted with Bravo to make the initial concentration of the sample reach 2 mM and 5-fold serial dilution at 10 points.
50 nL DMSO or sample to be tested was transferred to PE384-well OptiPlate by Echo. The cell suspension was transferred to the testing plate by electric pipette, 10 μL cells/well. The testing plate was centrifuged at 1000 rpm […]. The testing plate was incubated at room temperature for 60 minutes. Two kinds of test reagents were added to the testing plate, 5 µL/well. The testing plate was centrifuged at 1000 rpm for 1 minute. The experimental plate was sealed with Top Seal-A film and incubated at room temperature for 60 minutes. TopSeal-A was removed and the value was read on EnVision.
(TR-FRET usually uses a lanthanide donor and a delayed reading to cut background.)
`O=C(O)COCC1CCN(c2cncc(N(c3ccccc3)c3ccc(Cl)cc3)n2)CC1` [Compound 1]: the EC50 (usually the midpoint of the concentration-response curve) worked out at 2.02 nM. For `O=C(O)COCC1CCN(c2nccc(N(c3ccccc3)c3ccc(Cl)cc3)n2)CC1` [Compound 2], the half-maximal effective concentration (EC50) worked out at 2990 nM. The same measure for `O=C(O)COCC1CCN(c2cncc(N(c3ccccc3)c3ccc(F)cc3)n2)CC1` [Compound 3]: 2.09 nM; for `O=C(O)COCC1CCN(c2cncc(N(c3ccccc3)c3ccccc3)n2)CC1` [Compound 4]: 2.99 nM.

`COc1ccc(N(c2ccccc2)c2cncc(N3CCC(COCC(=O)O)CC3)n2)cc1` [Compound 5] returned a concentration for a half-maximal effect (EC50) of 3.74 nM.

For the compound `O=C(O)COCC1CCN(c2cncc(N(c3ccccc3)c3ccc(OC(F)(F)F)cc3)n2)CC1` [Compound 6], the concentration giving a half-maximal response (EC50) amounted to 3.55 nM. In the case of `COc1cccc(N(c2ccccc2)c2cncc(N3CCC(COCC(=O)O)CC3)n2)c1` [Compound 7] it was 2.12 nM. Compound `O=C(O)COCC1CCN(c2cncc(N(c3ccccc3)c3cccc(OC(F)(F)F)c3)n2)CC1` [Compound 8] displayed an EC50 of 38 nM.

Turning to `O=C(O)COCC1CCN(c2cncc(N(c3ccccc3)c3cccc(F)c3)n2)CC1` [Compound 9], a half-maximal effect (EC50) was put at 12.8 nM. As to `O=C(O)COCC1CCN(c2cncc(N(c3ccccc3)c3ccc(F)c(F)c3)n2)CC1` [Compound 10], the concentration giving a half-maximal response (EC50) is 10.2 nM. In turn, `O=C(O)COCC1CCN(c2cncc(N(c3ccccc3)c3cc(F)cc(F)c3)n2)CC1` [Compound 11] gave an EC50 of 123 nM. The compound `O=C(O)COCC1CCN(c2cncc(N(c3ccccc3)c3cccc(Cl)c3)n2)CC1` [Compound 12] had an EC50 of 4.84 nM. In the case of `O=C(O)COCC1CCN(c2cncc(N(c3ccccc3)c3ccc(OC(F)F)cc3)n2)CC1` [Compound 13] it was 4.17 nM.

Compound `O=C(O)COCC1CCN(c2cncc(N(c3ccccc3)c3cccc(OC(F)F)c3)n2)CC1` [Compound 14] had an EC50 of 9.65 nM. The same measure for `O=C(O)COCC1CCN(c2cccc(N(c3ccccc3)c3ccccc3)n2)CC1` [Compound 15]: over 2000 nM; for `O=C(O)COCC1CCN(c2ccnc(N(c3ccccc3)c3ccccc3)n2)CC1` [Compound 16]: 23.5 nM.

Take `O=C(O)COCC1(F)CCN(c2cncc(N(c3ccccc3)c3ccccc3)n2)CC1` [Compound 17]: the concentration giving a half-maximal response (EC50) stood at 0.29 nM. Compared with the last compound, the EC50 is about 81-fold lower. In the case of `CS(=O)(=O)NC(=O)COCC1(F)CCN(c2cncc(N(c3ccccc3)c3ccccc3)n2)CC1` [Compound 18] it was 79.9 nM. In the case of `CCOC(=O)COCC1(F)CCN(c2cncc(N(c3ccccc3)c3ccccc3)n2)CC1` [Compound 19] it was 6.11 nM; in that of `O=C(O)COCC1(F)CCN(c2cncc(N(c3ccccc3)c3ccc(OC(F)F)cc3)n2)CC1` [Compound 20], 1.65 nM; in that of `O=C(O)COCC1(F)CCN(c2cncc(N(c3ccccc3)c3cccc(OC(F)F)c3)n2)CC1` [Compound 21], 3 nM.

The compound `O=C(O)COCC1(F)CCN(c2cncc(N(c3ccccc3)c3cccc(F)c3)n2)CC1` [Compound 22] showed an EC50 of 0.22 nM.

On to `COc1ccc(N(c2ccccc2)c2cncc(N3CCC(F)(COCC(=O)O)CC3)n2)cc1` [Compound 23], for which the concentration for a half-maximal effect (EC50) is 1.1 nM. The same measure for `COc1cccc(N(c2ccccc2)c2cncc(N3CCC(F)(COCC(=O)O)CC3)n2)c1` [Compound 24]: 0.41 nM; for `O=C(O)COCC1(F)CCN(c2cncc(N(c3ccccc3)c3ccc(Cl)cc3)n2)CC1` [Compound 25]: 0.8 nM; for `O=C(O)COCC1(F)CCN(c2cncc(N(c3ccccc3)c3ccc(OC(F)(F)F)cc3)n2)CC1` [Compound 26]: 3.73 nM. The same measure for `O=C(O)COCC1(F)CCN(c2cncc(N(c3cccc(F)c3)c3ccccn3)n2)CC1` [Compound 27]: 6.74 nM; for `O=C(O)COCC1(F)CCN(c2cncc(N(c3cccc(Cl)c3)c3ccccn3)n2)CC1` [Compound 28]: 2.17 nM. In the case of `COc1cccc(N(c2ccc(F)cn2)c2cncc(N3CCC(F)(COCC(=O)O)CC3)n2)c1` [Compound 29] it was 4.19 nM; in that of `O=C(O)COCC1(F)CCN(c2cncc(N(c3ccccc3)c3ccccn3)n2)CC1` [Compound 30], 3.26 nM; in that of `O=C(O)COCC1(F)CCN(c2cncc(N(c3ccccc3)c3cccc(F)n3)n2)CC1` [Compound 31], 1.61 nM. Consider `O=C(O)COCC1(F)CCN(c2cncc(N(c3ccccc3)c3ccc(F)cn3)n2)CC1` [Compound 32], for which the half-maximal effective concentration (EC50) turned out to be 1.41 nM. In the case of `CS(=O)(=O)NC(=O)COCC1(F)CCN(c2cncc(N(c3ccccc3)c3ccc(F)cn3)n2)CC1` [Compound 33] it was 118 nM; in that of `COc1ccc(N(c2ccccc2)c2cncc(N3CCC(F)(COCC(=O)O)CC3)n2)nc1` [Compound 34], 1.9 nM; in that of `O=C(O)COCC1(F)CCN(c2cncc(N(c3ccccc3)c3ccc(F)cc3)n2)CC1` [Compound 35], 0.43 nM.

Compound `CS(=O)(=O)NC(=O)COCC1(F)CCN(c2cncc(N(c3ccccc3)c3ccc(F)cc3)n2)CC1` [Compound 36] showed a concentration giving a half-maximal response (EC50) of 4.97 nM. The same measure for `O=C(O)COCC1(F)CCN(c2cncc(N(c3ccccc3)C3CCCCC3)n2)CC1` [Compound 37]: 34.2 nM.

In turn, `COc1ccc(N(c2ccc(Cl)cc2)c2cncc(N3CCC(F)(COCC(=O)O)CC3)n2)nc1` [Compound 38] registered a concentration for a half-maximal effect (EC50) of 459 nM. `O=C(O)COCC1(F)CCN(c2cncc(N(c3ccc(Cl)cc3)c3ccc(F)cn3)n2)CC1` [Compound 39] yielded an EC50 of over 300 nM. The same measure for `O=C(O)COCC1(F)CCN(c2cncc(N(c3ccc(F)cc3)c3ccccn3)n2)CC1` [Compound 40]: 3.2 nM; for `O=C(O)COCC1(F)CCN(c2cncc(N(c3ccc(Cl)cc3)c3ccccn3)n2)CC1` [Compound 41]: 2.94 nM; for `COc1ccc(N(c2ccccn2)c2cncc(N3CCC(F)(COCC(=O)O)CC3)n2)cc1` [Compound 42]: 2.63 nM. In the case of `O=C(O)COCC1(F)CCN(c2cncc(N(c3ccccc3)c3ccc(Cl)cn3)n2)CC1` [Compound 43] it was 1.07 nM; in that of `O=C(O)COCC1(F)CCN(c2cncc(N(c3ccccc3)c3cc(Cl)ccn3)n2)CC1` [Compound 44], 1.98 nM. In the case of `Cc1ccc(N(c2ccccc2)c2cncc(N3CCC(F)(COCC(=O)O)CC3)n2)nc1` [Compound 45] it was 1.55 nM; in that of `O=C(O)COCC1(F)CCN(c2cncc(N(c3ccccc3)c3nccs3)n2)CC1` [Compound 46], 20.1 nM; in that of `O=C(O)COCC1CC=C(c2cncc(N(c3ccccc3)c3ccc(Cl)cc3)n2)CC1` (stereo not shown) [Compound 47], 40.1 nM.

With `O=C(O)COC[C@H]1CC[C@@H](c2cncc(N(c3ccccc3)c3ccccc3)n2)CC1` [Compound 48a], the response was half-maximal at 18 nM (EC50). Against the preceding compound, the EC50 is about 2.2-fold lower. `O=C(O)COC[C@H]1CC[C@H](c2cncc(N(c3ccccc3)c3ccccc3)n2)CC1` [Compound 48b]: the half-maximal effective concentration (EC50) was 3.72 nM. The same measure for `O=C(O)COCC1(F)CCN(c2cncc(C(O)(c3ccccc3)c3ccccc3)n2)CC1` [Compound 49]: 81 nM; for `O=C(O)COCC1(F)CCN(c2cncc(C(c3ccccc3)c3ccccc3)n2)CC1` [Compound 50]: 5.36 nM. As to `COC(c1ccccc1)(c1ccccc1)c1cncc(N2CCC(F)(COCC(=O)O)CC2)n1` [Compound 51], the midpoint of the response, the EC50, lay at 322 nM. This EC50 is about 60-fold higher than that of the compound before.
